Experimental data taken from patent publication US11679165B2, “Alkenyl substituted 2,5-piperazinediones, compositions, and uses thereof” (Massachusetts Institute of Technology, priority 2015, dated 2023).

What was measured:
[1] = system: human Erythropoietin (EPO); assay: Serum EPO after intravenous injection of EPO mRNA loaded LNPs (ELISA); assay type: in vivo, mice; settings: for serum EPO concentration: 0.75 mg/kg intravenous, C57BL/6 mice, six hours (FIG. 2); for Average EPO: serum EPO, mean±SD (n=3), 6 hr after 0.75 mg/kg intravenous injection into mice, lipid formulated as EPO mRNA LNP
Experimental: Compounds OF-00 through OF-03 were then formulated with human erythropoietin (EPO) mRNA, cholesterol, 1,2-dioleoyl-sn-glycero-3-phosphoethanolamine, and C14-PEG-2000 in accordance with previously optimized formulation parameters for mRNA delivery. See, e.g., A. Amirouche et al., Human molecular genetics 2013, 22, 3093-3111. […] Additionally, cKK-E12 is capable of silencing Factor VII expression in mice at siRNA doses as low as 0.002 mg/kg, and as such it represents a benchmark ionizable lipid in the field of nucleic acid delivery. The nanoparticle diameters, polydispersity indices, and encapsulation efficiencies for each of these five formulations is provided in Table 1. Serum EPO concentrations are reported as mean±SD (n=3) 6 hr after a 0.75 mg/kg dose intravenous injection into mice. Encapsulation efficiencies, LNP diameter, and PDI were collected as described above for each representative LNP formulation.
Each resultant mRNA loaded LNP was then injected intravenously at a 0.75 mg/kg dose in C57BL/6 mice alongside phosphate buffered saline (PBS) as a negative control. At six hours, the serum EPO levels were quantified (FIG. 2). The PBS control imparted no significant EPO production in vivo, whereas positive control cKK-E12 LNPs promoted a serum EPO concentration of 7050 ng/mL. […] Additionally, OF-02 outperformed two other benchmark ionizable lipids from the siRNA delivery field, namely 503-013 (See, e.g, J. McClellan, M. C. King, Cell 2010, 141, 210-217; Whitehead et al., Nature Communications (2014) 5:4277) and C12-200 (K. T. Love et al., Proceedings of the National Academy of Sciences of the United States of America 2010, 107, 1864-1869). These two compounds represent the leads in their respective ionizable lipid classes of acrylate esters and amino alcohols, and promoted respective EPO concentrations of 2836 ng/mL and 7065 ng/mL at an identical dose.
General Lipid Nanoparticle (LNP) Synthesis. The organic phase was prepared by solubilizing with ethanol a mixture of ionizable lipid, 1,2-dioleoyl-sn-glycero-3-phosphoethanolamine (DOPE, Avanti), cholesterol (Sigma), and 1,2-dimyristoyl-sn-glycero-3-phosphoethanolamine-N-[methoxy(polyethyleneglycol)-2000] (ammonium salt) (C14-PEG 2000, Avanti) at a molar ratio of 35:16:46.5:2.5 and ionizable lipid:mRNA weight ratio of 10:1 in accordance with previously optimized formulation parameters for mRNA delivery. The aqueous phase was prepared in 10 mM citrate buffer (pH 3) with either EPO mRNA (human Erythropoietin mRNA, courtesy of Shire Pharmaceuticals, Cambridge, Mass.) or Luc mRNA (Firefly luciferase mRNA, Shire). The ethanol and aqueous phases were mixed at a 3:1 ratio in a microfluidic chip device (ref Delai's paper) using syringe pumps as previously described at a final mRNA concentration of 0.1 mg/mL. See, e.g., Chen et al., J. Am. Chem. Soc. (2012) 134:6948. Resultant LNPs were dialyzed against PBS in a 20,000 MWCO cassette at 4° C. for 2 hours.
(§1) Animal Experiments. […] Luminescence was quantified using LivingImage software (Perkin Elmer).

[2] = mRNA encapsulation efficiency, modified Quant-iT RiboGreen RNA assay; assay type: physicochemical; settings: EPO mRNA LNP formulation of the ionizable lipid
Experimental: (§2) General Lipid Nanoparticle (LNP) Synthesis. […] The ethanol and aqueous phases were mixed at a 3:1 ratio in a microfluidic chip device (ref […] paper) using syringe pumps as previously described at a final mRNA concentration of 0.1 mg/mL. See, e.g., Chen et al., J. Am. Chem. Soc. (2012) 134:6948. Resultant LNPs were dialyzed against PBS in a 20,000 MWCO cassette at 4° C. for 2 hours. LNP Characterization. To calculate the mRNA encapsulation efficiency, a modified Quant-iT RiboGreen RNA assay (Invitrogen) was used as previously described. See, […] al., J. Controlled Release (2005) 107:276-287. The diameter and polydispersity (PDI) of the LNPs were measured using dynamic light scattering (ZetaPALS, Brookhaven Instruments). LNP diameters are reported as the largest intensity mean peak average, which constituted >95% of the nanoparticles present in the sample.

[3] = LNP diameter and polydispersity by dynamic light scattering; assay type: physicochemical; settings: for LNP Diameter: largest intensity mean peak average
Experimental: as §2

[4] = system: Factor VII; settings: mice, siRNA delivery; cited from earlier work
[5] = system: mice; assay: Mortality and weight change of mice treated with mRNA LNPs; settings: all doses studied
Experimental: FIG. 7 depicts the percent weight gain for cKK-E12 and OF-02 mRNA LNPs reported as mean SD (n=3) 24 hours after respective intravenous dose into mice.
Animal Experiments. […] LNPs were intraveneously injected in female C57BL/6 mice (Charles River Labs, 18-22 grams) via the tail vein. After six or 24 hours, blood was collected via the tail vein and serum was isolated by centrifugation in serum separation tubes. Serum EPO levels were quantified with an ELISA assay (Human Erythropoietin Quantikine IVD ELISA Kit, R&D Systems, Minneapolis, Md.). 24 hours after injection of Luc-mRNA LNPs, mice were injected intraperitoneally with 130 μL of D-luciferin (30 mg/mL in PBS). After fifteen minutes, mice were sacrificed and the organs were isolated (pancreas, spleen, liver, kidneys, lungs, heart, uterus and ovaries) and imaged with an IVIS imaging system (Perkin Elmer, Waltham, Mass.). Luminescence was quantified using LivingImage software (Perkin Elmer).

[6] = system: luciferase; parameters: species or system mice; settings: mouse, in vivo
Experimental: We were interested to determine if the efficacy differences observed between ckk-E12 and OF-02 LNPs were due to variations in biodistribution. mRNA coding for luciferase was independently formulated with both ckk-E12 and OF-02 in the same fashion as for EPO delivery, and mouse organs were harvested 24 hours post injection. […] Since more than 4000 human diseases are caused by liver genetic disorders such as hemophilias A and B, OF-02 LNPs represent a promising delivery vehicle for therapeutic mRNA delivery to the liver. See, e.g., J. McClellan et al., Cell 2010, 142, 353-355.
as §1

| SMILES | serum EPO concentration [1] [ng/mL] | Encapsulation Efficiency [2] [%] | PDI [3] | LNP Diameter [3] [nm] | Average EPO [1] [ng/mL] | siRNA dose at which Factor VII expression is silenced [4] [µg/kg] | animal mortality [5] | dose response behaviour of EPO production ([1]; 0.75 to 2.25 mg/kg EPO mRNA (FIG. 3B)) | organ of luciferase mRNA translation (total luminescence per organ) [6] |
| --- | --- | --- | --- | --- | --- | --- | --- | --- | --- |
| CCCCCCCCCCCCCOC(=O)CCN(CCC(=O)OCCCCCCCCCCCCC)CCN(C)CCCN(C)CCN(CCC(=O)OCCCCCCCCCCCCC)CCC(=O)OCCCCCCCCCCCCC [Compound 503-013] | 2836 | – | – | – | – | – | – | – | – |
| CCCCCCCCCCC(O)CN(CCN1CCN(CCN(CC(O)CCCCCCCCCC)CC(O)CCCCCCCCCC)CC1)CCN(CC(O)CCCCCCCCCC)CC(O)CCCCCCCCCC (stereo not drawn) [Compound C12-200] | 7065 | – | – | – | – | – | – | – | – |
| CC/C=C\C/C=C\C/C=C\CC(O)CN(CCCCC1NC(=O)C(CCCCN(CC(O)C/C=C\C/C=C\C/C=C\CC)CC(O)C/C=C\C/C=C\C/C=C\CC)NC1=O)CC(O)C/C=C\C/C=C\C/C=C\CC (stereo not drawn) [OF-03] | – | 76 | 0.239 | 75 | 140 ± 3 | – | – | – | – |
| CCCCCCCCCCC(O)CN(CCCCC1NC(=O)C(CCCCN(CC(O)CCCCCCCCCC)CC(O)CCCCCCCCCC)NC1=O)CC(O)CCCCCCCCCC (stereo not drawn) [cKK-E12] | 7050 | 54 | 0.217 | 83 | 7100 ± 700 | 2 | no animal mortality was observed | linear fashion with respect to dose | predominantly translated in the liver |
